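Dose response: 5 concentrations. Exposure: 48 h. Format: 96-well plates. Endpoint: linear interpolation; highest concentration if not reached. GI50: concentration for 50% inhibition of growth.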 Activity calls are given as the source filed them. No stated cut-off is given here; in the data, active = GI50 up to about 1.1 µM and inactive = higher.
Key:
Experiment in all cases: NCI anticancer screen, dose series, 48 h
COLO 205 = tested on: COLO 205
DU-145 = tested on: DU-145
EKVX = tested on: EKVX
HCC 2998 = tested on: HCC 2998
HL-60 = tested on: HL-60
KM12 = tested on: KM12
M14 = tested on: M14
MCF7 = tested on: MCF7
Malme-3M = tested on: Malme-3M
NCI-H226 = tested on: NCI-H226
NCI-H460 = tested on: NCI-H460
OVCAR-3 = tested on: OVCAR-3
OVCAR-4 = tested on: OVCAR-4
OVCAR-5 = tested on: OVCAR-5
PC-3 = tested on: PC-3
SK-MEL-2 = tested on: SK-MEL-2
SK-MEL-5 = tested on: SK-MEL-5
SR = tested on: SR
SW-620 = tested on: SW-620
HOP-18 = tested on: HOP-18

Measured: GI50

N#C/C(=C\Nc1ccccn1)C(=O)C1CC1
inactive: COLO 205 > 100 µM | DU-145 > 100 µM | EKVX > 100 µM | HCC 2998 > 100 µM | HL-60 > 100 µM | KM12 > 100 µM | M14 > 100 µM | MCF7 > 100 µM | Malme-3M > 100 µM | NCI-H226 > 100 µM | NCI-H460 > 100 µM | OVCAR-3 > 100 µM | OVCAR-4 > 100 µM | OVCAR-5 > 100 µM | PC-3 > 100 µM | SK-MEL-2 > 100 µM | SK-MEL-5 > 100 µM | SR > 100 µM | SW-620 > 100 µM

COC1/C=C\OC2(C)Oc3c(C)c(O)c4c(O)c(c(CN(C)C)c(O)c4c3C2=O)NC(=O)/C(C)=C\C=C/C(C)C(O)C(C)C(O)C(C)C(OC(C)=O)C1C (stereo not drawn)
inactive: COLO 205 17.5 µM | DU-145 32.3 µM | EKVX 12.5 µM | HCC 2998 20.5 µM | HL-60 18.5 µM | KM12 33.7 µM | M14 19.4 µM | MCF7 17.9 µM | Malme-3M 19.3 µM | NCI-H226 > 100 µM | NCI-H460 32.1 µM | OVCAR-3 15.4 µM | OVCAR-4 36.6 µM | OVCAR-5 > 100 µM | PC-3 23 µM | SK-MEL-2 18.7 µM | SK-MEL-5 18.5 µM | SR 15.7 µM | SW-620 12.2 µM

CN1C(=O)n2c(nc3ccccc32)C(N=[N+]=[N-])(N=[N+]=[N-])C1=O (stereo not drawn)
inactive: COLO 205 > 100 µM | EKVX > 100 µM | HCC 2998 > 100 µM | HL-60 > 100 µM | HOP-18 > 100 µM | KM12 > 100 µM | M14 > 100 µM | Malme-3M > 100 µM | NCI-H226 > 100 µM | NCI-H460 > 100 µM | OVCAR-3 > 100 µM | OVCAR-4 > 100 µM | OVCAR-5 > 100 µM | SK-MEL-2 > 100 µM | SK-MEL-5 > 100 µM | SW-620 > 100 µM

CC(C)C(=O)NS(=O)(=O)c1ccccc1
inactive: COLO 205 > 100 µM | EKVX > 100 µM | HCC 2998 > 100 µM | HL-60 > 100 µM | HOP-18 > 100 µM | KM12 > 100 µM | M14 > 100 µM | Malme-3M > 100 µM | NCI-H226 > 100 µM | NCI-H460 > 100 µM | OVCAR-3 > 100 µM | OVCAR-4 > 100 µM | OVCAR-5 > 100 µM | SK-MEL-2 > 100 µM | SR > 100 µM | SW-620 > 100 µM

COc1c2nc(CCl)[nH]c(=O)c2c(OC)c2nc(CCl)[nH]c(=O)c12
inactive: COLO 205 > 100 µM | HL-60 > 100 µM | HOP-18 > 100 µM | KM12 > 100 µM | M14 > 100 µM | Malme-3M > 100 µM | NCI-H226 > 100 µM | NCI-H460 > 100 µM | OVCAR-3 > 100 µM | OVCAR-4 > 100 µM | OVCAR-5 > 100 µM | SK-MEL-2 > 100 µM | SK-MEL-5 > 100 µM | SW-620 > 100 µM

N#CC(C#N)=Cc1c(O)ccc2ccccc12
inactive: COLO 205 15.2 µM | DU-145 14.2 µM | EKVX 12 µM | HCC 2998 16 µM | HL-60 2.99 µM | KM12 17.8 µM | M14 13.8 µM | MCF7 10.1 µM | Malme-3M 17 µM | NCI-H226 21.3 µM | NCI-H460 14.7 µM | OVCAR-3 13.7 µM | OVCAR-4 18.3 µM | OVCAR-5 17 µM | PC-3 17.5 µM | SK-MEL-2 13.7 µM | SK-MEL-5 13.3 µM | SR 4.17 µM | SW-620 11.9 µM

COc1ccc2c3c(coc13)C(CCC(=O)O)CC2 (stereo not drawn)
inactive: COLO 205 > 100 µM | EKVX > 100 µM | HCC 2998 > 100 µM | HOP-18 88.5 µM | M14 > 100 µM | NCI-H460 > 100 µM | OVCAR-3 > 100 µM | OVCAR-4 > 100 µM | SK-MEL-5 > 100 µM | SW-620 > 100 µM
